According to patent publication US11191722B2, “Treatment of diabetes mellitus by long-acting formulations of insulins” (SANOFI, priority 2013, dated 2021):

Test system: patients with type 2 diabetes mellitus
Settings: in vivo
Excerpt: Hypoglycemia, occurrence of adverse events particularly treatment-emergent adverse events (TEAEs) and serious adverse events (SAEs), injection site reactions and hypersensitivity reactions.
Safety analyses were descriptive, based on the safety population.

Substance	Death on-study during first 6 months	Death post-study
insulin glargine [HOE901-U300]	2 (0.5%) n (%)	0 n (%)
insulin glargine [Lantus]	2 (0.5%) n (%)	0 n (%)
